Four compounds from patent publication US20060148860A1, “Substituted p-phenyl carbamates” (Novo Nordisk A/S, priority 2003, published 2006) can be followed below.

The assay addresses T1, hormone sensitive lipase (HSL) (Homo sapiens, UniProt Q05469).
T1 sequence (Q05469 1-1076): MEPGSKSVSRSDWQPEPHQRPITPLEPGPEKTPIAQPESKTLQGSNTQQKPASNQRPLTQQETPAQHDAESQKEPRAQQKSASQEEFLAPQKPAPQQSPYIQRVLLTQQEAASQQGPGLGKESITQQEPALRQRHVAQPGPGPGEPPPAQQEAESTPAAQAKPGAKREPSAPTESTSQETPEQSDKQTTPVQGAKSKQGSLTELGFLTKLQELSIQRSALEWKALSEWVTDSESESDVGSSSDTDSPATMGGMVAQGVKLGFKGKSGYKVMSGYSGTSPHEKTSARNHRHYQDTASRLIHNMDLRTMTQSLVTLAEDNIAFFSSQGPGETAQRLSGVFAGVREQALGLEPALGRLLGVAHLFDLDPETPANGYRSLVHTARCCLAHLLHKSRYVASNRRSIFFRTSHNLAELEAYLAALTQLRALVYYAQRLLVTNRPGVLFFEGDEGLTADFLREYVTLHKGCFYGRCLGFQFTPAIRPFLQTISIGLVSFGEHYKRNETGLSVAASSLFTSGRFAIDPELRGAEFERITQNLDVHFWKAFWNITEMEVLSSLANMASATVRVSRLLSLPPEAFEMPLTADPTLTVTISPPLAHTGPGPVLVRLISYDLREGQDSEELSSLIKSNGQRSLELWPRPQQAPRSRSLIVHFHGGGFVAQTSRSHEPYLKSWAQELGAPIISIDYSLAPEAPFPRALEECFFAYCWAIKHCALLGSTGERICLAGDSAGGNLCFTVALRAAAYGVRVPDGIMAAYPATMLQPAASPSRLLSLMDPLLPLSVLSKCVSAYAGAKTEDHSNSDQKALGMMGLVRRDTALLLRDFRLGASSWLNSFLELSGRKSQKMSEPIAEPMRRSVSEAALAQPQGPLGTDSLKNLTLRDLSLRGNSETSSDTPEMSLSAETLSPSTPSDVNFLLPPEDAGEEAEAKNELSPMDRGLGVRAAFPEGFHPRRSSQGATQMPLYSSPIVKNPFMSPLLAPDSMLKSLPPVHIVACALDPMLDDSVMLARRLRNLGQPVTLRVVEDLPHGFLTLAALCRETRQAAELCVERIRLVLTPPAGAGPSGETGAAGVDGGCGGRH
Briefly: 3190.1: percent inhibition of hormone sensitive lipase at 10 μM (fluorochrome-labeled triacylglyceride emulsion, HSL_FL). It counts as biochemical. The note with it: 10 μM sample concentration; % activity relative to non-inhibited sample (no compound); 30 min pre-incubation at 25° C., 120 min at 37° C. From the text:
Materials. The Hormone-sensitive lipase was provided by Dr. Cecilia Holm, from Lund University Sweden or produced and purified by Novo Nordisk (NN) using the reagents and protocols used by Dr. Holm. The substrates used are: ^3H-labeled triolein (TO) from Amersham, Buckinghamshire, U.K. cat No. TRA191; 5-20 Ci/mmol dissolved in toluene, triolein (Sigma, Cat. No. T-1740), fluorochrome-labeled triacylglyceride (cis-octadec-9-enoic acid 2-[12-(7-nitrobenzo[1,2,5]oxadiazol-4-ylamino)dodecanoyloxy]-1-cis-octadec-9-enoyloxymethyl-ethyl ester) prepared by Novo Nordisk (NN) by conventional methods, and 1,3-(di[^3H]-stearin), 2-(PEG-Biotin)glycerol prepared in collaboration with Amersham Pharmacia Biotech, UK and described in WO 01/073442. Phosphatidyl choline (PC) and phosphatidyl inositol (PI) are from Sigma (St Luis Mo. cat. Nos. P-3556 and P-5954 respectively). All other reagents are of commercial grade and obtained from various commercial sources.
3190.1: Assay for determination of percent inhibition of hormone sensitive lipase by compound at 10 μM sample concentration.
A lipid emulsion with fluorochrome-labeled triacylglyceride and phospholipid is used as substrate with a standard concentration of highly purified HSL (12 μg/mL initial concentration corresponding to 600 ng/mL final concentration). BSA is added as product acceptor. The transfer of the fluorochrome from the lipid phase to the water (BSA) phase changes the fluorescent properties of the fluorochrome. The changes can be monitored on a fluorimeter with an excitation wavelength of 450 nm and an emission wavelength of 545 nm.
Compound and HSL (20 μL compound, 10 μL enzyme and 70 μL PED-BSA buffer) is pre-incubated for 30 min at 25° C. before addition of substrate (100 μL). Amount of formed product is measured after 120 min incubation at 37° C.
Results are given as percent activity relative to a non-inhibited sample (no compound).
In the case of `CN(C(=O)Oc1ccc(CCOc2ccncc2)cc1)c1ccccc1` [Example 1, Methyl-phenyl-carbamic acid 4-[2-(pyridin-4-yloxy)-ethyl]-phenyl ester], the activity at 10 µM worked out at 1%.

Turning to `CN(C(=O)Oc1ccc(CSc2ncc[nH]2)cc1)c1ccccc1` [Example 2, Methyl-phenyl-carbamic acid 4-(1H-imidazol-2-ylsulfanylmethyl)-phenyl ester], the activity at 10 µM was determined as 1%. On to `CN(C(=O)Oc1ccc(CCSc2ncc[nH]2)cc1)c1ccccc1` [Example 3, Methyl-phenyl-carbamic acid 4-[2-(1H-imidazol-2-ylsulfanyl)-ethyl]-phenyl ester], for which the activity at 10 µM stood at 1%. For `Cc1cccc(Cc2ccc(OC(=O)N(C)c3ccccc3)cc2)n1` [Example 4, Methyl-phenyl-carbamic acid 4-(6-methyl-pyridin-2-ylmethyl)-phenyl ester] the value was 5%.
